pIC50: −log10 of the molar value. Structures can show the parent of a compound that is named as a salt.
Tested on: thromboxane synthetase
Experiment: not given
Conditions: literature reports; cited from earlier work
For `CC(C)c1ccccc1-n1ccnc1` [1-(2-isopropylphenyl)imidazole], the “inhibitory effect on thromboxane synthetase (in words, prior art)” value (shortened to “inhibitory effect … (in words, prior art)”) is listed as “strong inhibitory effect”. For `COC(=O)CCCCCCn1ccnc1` [1-(6-methoxycarbonylhexyl) imidazole], the “inhibitory effect … (in words, prior art)” value is listed as “inhibitory effect”. For `c1ccc(Cn2ccnc2)cc1` [1-benzylimidazole], the “inhibitory effect … (in words, prior art)” value is given as “strong inhibitory effect”. For `CCCCCCCCCCn1ccnc1` [1-decylimidazole], the “inhibitory effect … (in words, prior art)” value is given as “strong inhibitory effect”. In the case of `CCCCCCCCCn1ccnc1` [1-nonylimidazole], the “inhibitory effect … (in words, prior art)” value is listed as “strong inhibitory effect”. For `c1c[nH]cn1` [imidazole], the “inhibitory effect … (in words, prior art)” value is given as “very weak inhibitory effect”.

Molecular target: T1, thromboxane synthetase from rabbit platelet microsomes (Oryctolagus cuniculus, UniProt G1TAZ9)
T1 construct: thromboxane synthetase from rabbit platelet microsomes; from tissue; host or cells: rabbit platelet microsomes
T1 sequence (G1TAZ9 1-530): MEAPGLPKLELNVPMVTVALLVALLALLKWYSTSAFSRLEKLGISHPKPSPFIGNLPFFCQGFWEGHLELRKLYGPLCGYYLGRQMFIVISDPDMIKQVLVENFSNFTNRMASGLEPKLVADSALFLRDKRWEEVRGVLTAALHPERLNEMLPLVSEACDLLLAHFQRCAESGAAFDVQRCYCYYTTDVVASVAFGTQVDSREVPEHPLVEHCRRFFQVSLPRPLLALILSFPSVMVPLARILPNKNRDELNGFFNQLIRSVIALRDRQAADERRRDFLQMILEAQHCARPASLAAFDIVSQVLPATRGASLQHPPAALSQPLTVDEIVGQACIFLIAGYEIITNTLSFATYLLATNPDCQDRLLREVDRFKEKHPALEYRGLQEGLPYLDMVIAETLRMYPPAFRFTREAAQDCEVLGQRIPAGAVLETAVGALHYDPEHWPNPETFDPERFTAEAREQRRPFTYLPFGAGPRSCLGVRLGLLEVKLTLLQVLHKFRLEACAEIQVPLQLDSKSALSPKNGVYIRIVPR
Experiment: inhibition of thromboxane synthetase from rabbit platelet microsomes (conversion of prostaglandin H2 into thromboxane B2)
Format: biochemical
Conditions: read-out: molar concentration producing a 50% inhibition of thromboxane synthetase
Source text: [Nature, Vol. 261, No. 6, 17-, (1976)].
The inhibitory action of the imidazole derivatives of this invention can be confirmed by determination of thromboxane B2 produced by thromboxane synthetase from prostaglandin H2 via thromboxane A2.
In the case of `CC(=Cc1ccc(Cn2ccnc2)cc1)C(=O)O` [P-(1-imidazolylmethyl)-α-methylcinnamic acid hydrochloric acid salt], the pIC50 was 8.40.

Source: patent publication US4226878A, “Imidazole derivative” (Kissei Pharmaceutical Co., Ltd., priority 1978, dated 1980)
